Drawing on ChEMBL document CHEMBL1909046, “DrugMatrix in vitro pharmacology data”, this text covers IC50 and Ki for twelve compounds.

Series [1] in a line: DRUGMATRIX: Calcium Channel Type L, Dihydropyridine radioligand binding (ligand: [3H] Nitrendipine). The class given is cell membranes, Rattus norvegicus, Wistar, Cerebral cortex, Membrane. Particulars: Not Active = under 50% inhibition at 10 µM.
Series [2] is described as follows: DRUGMATRIX: Nicotinic Acetylcholine radioligand binding (ligand: [125I] Epibatidine). It is filed as cell membranes, Membrane. Conditions: imr-32; Not Active = under 50% inhibition at 10 µM.
The nature of series [3]: DRUGMATRIX: Sigma2 radioligand binding (ligand: [3H] Ifenprodil). Conditions: Not Active = under 50% inhibition at 10 µM. It is filed as cell membranes, Rattus norvegicus, Wistar, Brain, Membrane.
Another series concerns the target T1, B2 bradykinin receptor (Homo sapiens, UniProt P30411). Note: in other assays of this panel Not Active means under 50% inhibition at 10 µM.
T1 sequence (P30411 whole entry): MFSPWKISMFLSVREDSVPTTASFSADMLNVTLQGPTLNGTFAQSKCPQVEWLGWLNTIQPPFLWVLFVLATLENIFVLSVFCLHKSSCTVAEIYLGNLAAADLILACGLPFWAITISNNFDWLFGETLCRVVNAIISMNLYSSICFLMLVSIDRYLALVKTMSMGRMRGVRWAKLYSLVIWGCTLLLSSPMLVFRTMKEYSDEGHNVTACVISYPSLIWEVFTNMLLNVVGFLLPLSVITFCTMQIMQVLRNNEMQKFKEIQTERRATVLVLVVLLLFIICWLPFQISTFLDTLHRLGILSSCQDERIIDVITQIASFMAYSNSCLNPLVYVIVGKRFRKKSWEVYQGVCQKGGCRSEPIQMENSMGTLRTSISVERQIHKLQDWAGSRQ
It is filed as cell membranes, Membrane. Particulars: chem-1.

The target of series [4] is Protein kinase C alpha type (Homo sapiens, UniProt P17252). It is filed as cell-based. Conditions: sf9.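 Note: inhibition of PKCalpha kinase activity measured in an enzyme assay with histone as the phosphorylation substrate; in other assays of this panel Not Active means under 50% inhibition at 10 µM.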
Another series addresses T2, Glucocorticoid receptor (Homo sapiens, UniProt P04150).
T2 sequence (P04150 whole entry): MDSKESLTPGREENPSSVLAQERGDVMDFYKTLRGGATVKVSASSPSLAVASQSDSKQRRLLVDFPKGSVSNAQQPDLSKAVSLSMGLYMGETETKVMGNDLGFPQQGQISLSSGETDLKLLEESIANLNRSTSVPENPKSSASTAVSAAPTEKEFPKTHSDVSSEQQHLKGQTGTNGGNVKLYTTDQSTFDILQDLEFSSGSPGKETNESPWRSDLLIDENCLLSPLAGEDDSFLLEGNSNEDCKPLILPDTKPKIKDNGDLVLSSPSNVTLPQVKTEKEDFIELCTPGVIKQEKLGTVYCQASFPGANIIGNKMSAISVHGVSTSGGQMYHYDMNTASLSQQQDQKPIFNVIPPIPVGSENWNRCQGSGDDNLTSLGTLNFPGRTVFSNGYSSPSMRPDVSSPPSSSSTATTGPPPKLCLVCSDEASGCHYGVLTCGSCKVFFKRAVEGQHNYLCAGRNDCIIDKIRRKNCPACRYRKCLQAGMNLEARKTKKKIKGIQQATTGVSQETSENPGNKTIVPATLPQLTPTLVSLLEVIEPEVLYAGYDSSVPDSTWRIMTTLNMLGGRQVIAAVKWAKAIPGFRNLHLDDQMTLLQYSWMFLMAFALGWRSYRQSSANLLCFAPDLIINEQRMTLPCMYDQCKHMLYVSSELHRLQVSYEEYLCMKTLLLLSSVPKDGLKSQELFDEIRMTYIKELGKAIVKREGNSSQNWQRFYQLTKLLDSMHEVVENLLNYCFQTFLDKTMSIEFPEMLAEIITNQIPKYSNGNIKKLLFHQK
Particulars: hela s3.

A further series addresses T3, Cytochrome P450 2A6 (Homo sapiens, UniProt P11509).
T3 sequence (P11509 whole entry): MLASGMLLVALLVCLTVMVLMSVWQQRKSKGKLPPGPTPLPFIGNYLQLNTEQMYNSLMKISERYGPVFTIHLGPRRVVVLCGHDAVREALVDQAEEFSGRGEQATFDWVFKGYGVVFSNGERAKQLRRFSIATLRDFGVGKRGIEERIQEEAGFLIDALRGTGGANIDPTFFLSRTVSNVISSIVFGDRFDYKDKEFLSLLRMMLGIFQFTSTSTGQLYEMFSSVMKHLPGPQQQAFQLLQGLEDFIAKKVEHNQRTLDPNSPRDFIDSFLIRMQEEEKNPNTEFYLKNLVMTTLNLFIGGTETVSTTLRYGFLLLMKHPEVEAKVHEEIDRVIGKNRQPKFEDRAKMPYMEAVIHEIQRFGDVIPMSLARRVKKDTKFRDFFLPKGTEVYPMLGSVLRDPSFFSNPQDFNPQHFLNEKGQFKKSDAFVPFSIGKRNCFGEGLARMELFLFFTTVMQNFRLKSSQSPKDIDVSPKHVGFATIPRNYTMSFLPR
Particulars: bti-tn-5b1-4.

Series [5] deals with 5-hydroxytryptamine receptor 1B (Rattus norvegicus, UniProt P28564). The class given is cell membranes, Wistar, Cerebral cortex, Membrane.
5-hydroxytryptamine receptor 1B, sequence (P28564 whole entry): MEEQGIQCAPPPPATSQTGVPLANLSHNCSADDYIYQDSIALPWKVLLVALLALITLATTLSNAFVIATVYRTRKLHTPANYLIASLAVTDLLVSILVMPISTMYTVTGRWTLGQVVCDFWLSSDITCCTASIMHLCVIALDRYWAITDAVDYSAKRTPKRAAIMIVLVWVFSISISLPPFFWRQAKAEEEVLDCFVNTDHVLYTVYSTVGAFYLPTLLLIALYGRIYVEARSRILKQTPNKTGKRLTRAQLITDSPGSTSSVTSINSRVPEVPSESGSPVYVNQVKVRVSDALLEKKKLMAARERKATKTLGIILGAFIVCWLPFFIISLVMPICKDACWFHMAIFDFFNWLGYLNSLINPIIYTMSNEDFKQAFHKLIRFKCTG

A word on the IC50: it is the point on the concentration scale where inhibition reaches its midpoint. The Ki is the equilibrium dissociation constant of an inhibitor or competing ligand from its target. For `C[C@@H]1CC[C@@]2(OC1)O[C@H]1[C@@H](O)[C@H]3[C@@H]4CC[C@H]5C[C@@H](O[C@@H]6O[C@H](CO)[C@H](O[C@@H]7O[C@H](CO)C(O)[C@H](O[C@@H]8OC[C@@H](O)[C@H](O)[C@H]8O)[C@H]7O[C@@H]7O[C@H](CO)[C@H](O)[C@H](O[C@@H]8O[C@H](CO)[C@@H](O)[C@H](O)[C@H]8O)[C@H]7O)[C@H](O)[C@H]6O)[C@H](O)C[C@]5(C)[C@H]4CC[C@]3(C)[C@H]1[C@@H]2C` (stereo not given in full) [DIGITONIN], the IC50 entry (in series [1]; in series [2]; in series [3]; on B2 bradykinin receptor; in series [4]; against Glucocorticoid receptor) was “Not Active” in each case. Also, the IC50 entry (against Cytochrome P450 2A6; in series [5]) was “Not Active” throughout. For the same compound, the Ki result (in series [1]; in series [2]; in series [3]; at Cytochrome P450 2A6) was “Not Active” in each case.
`C[C@H]1O[C@@H](n2cc(F)c(=O)[nH]c2=O)[C@H](O)[C@@H]1O` [DOXIFLURIDINE]: the IC50 result (in series [1]; in series [2]; in series [3]; at B2 bradykinin receptor; in series [4]; against Glucocorticoid receptor) was “Not Active” in each case. Moreover, the IC50 entry (against Cytochrome P450 2A6; in series [5]) was “Not Active” in each case. Besides, the Ki entry (in series [1]; in series [2]; in series [3]; on Cytochrome P450 2A6) was “Not Active” each time.
Consider `Cn1c(=O)c2c(ncn2CC(O)CO)n(C)c1=O` (stereo not given) [DYPHYLLINE], for which the IC50 entry (in series [1]; in series [2]; in series [3]; against B2 bradykinin receptor; in series [4]; against Glucocorticoid receptor) was “Not Active” each time. Besides, the IC50 result (against Cytochrome P450 2A6; in series [5]) was “Not Active” in each case. For the same compound, the Ki result (in series [1]; in series [2]; in series [3]; on Cytochrome P450 2A6) was “Not Active” throughout.
As to `CC[C@H]1CN2CCc3cc(OC)c(OC)cc3[C@@H]2C[C@@H]1C[C@H]1NCCc2cc(OC)c(OC)cc21` [EMETINE], the IC50 entry (in series [1]; in series [2]; in series [3]; on B2 bradykinin receptor; in series [4]; against Glucocorticoid receptor) was “Not Active” throughout. Also, the IC50 entry (at Cytochrome P450 2A6; in series [5]) was “Not Active” throughout. Also, the Ki entry (in series [1]; in series [2]; in series [3]; at Cytochrome P450 2A6) was “Not Active” each time.
With `C[C@@H](CO)NC(=O)[C@@H]1C=C2c3cccc4[nH]cc(c34)C[C@H]2N(C)C1` [ERGONOVINE], the IC50 result (in series [1]; in series [2]; in series [3]; against B2 bradykinin receptor; in series [4]; against Glucocorticoid receptor) was “Not Active” throughout. In addition, the IC50 entry was “Not Active” at Cytochrome P450 2A6 and 2.85 nM in series [5] (read-out: IC50). In addition, the Ki result was “Not Active” in series [1]; “Not Active” in series [2]; “Not Active” in series [3]; “Not Active” at Cytochrome P450 2A6; 1.29 nM in series [5] (read-out: Ki).
For the compound `COC(=O)CCc1ccc(OCC(O)CNC(C)C)cc1` (stereo not given) [ESMOLOL], the IC50 result (in series [1]; in series [2]; in series [3]; on B2 bradykinin receptor; in series [4]; against Glucocorticoid receptor) was “Not Active” throughout. Further, the IC50 result (at Cytochrome P450 2A6; in series [5]) was “Not Active” in each case. Also, the Ki entry (in series [1]; in series [2]; in series [3]; at Cytochrome P450 2A6) was “Not Active” throughout.
Regarding `CCC1(C)CC(=O)NC1=O` (stereo not given) [ETHOSUXIMIDE], the IC50 result (in series [1]; in series [2]; in series [3]; against B2 bradykinin receptor; in series [4]; at Glucocorticoid receptor) was “Not Active” throughout. Moreover, the half-inhibitory concentration (IC50) result (against Cytochrome P450 2A6; in series [5]) was “Not Active” throughout. Besides, the Ki result (in series [1]; in series [2]; in series [3]; on Cytochrome P450 2A6) was “Not Active” each time.
As to `C#C[C@]1(OC(C)=O)CC[C@H]2[C@@H]3CCC4=C[C@@H](OC(C)=O)CC[C@@H]4[C@H]3CC[C@@]21C` [ETHYNODIOL DIACETATE], the IC50 result (in series [1]; in series [2]; in series [3]; on B2 bradykinin receptor; in series [4]; at Glucocorticoid receptor) was “Not Active” each time. The IC50 result (against Cytochrome P450 2A6; in series [5]) was “Not Active” in each case. The Ki result (in series [1]; in series [2]; in series [3]; on Cytochrome P450 2A6) was “Not Active” throughout.
For the compound `CC(C)(C)NC(=O)[C@H]1CC[C@H]2[C@@H]3CC[C@H]4NC(=O)C=C[C@]4(C)[C@H]3CC[C@]12C` [FINASTERIDE], the IC50 entry (in series [1]; in series [2]; in series [3]; at B2 bradykinin receptor; in series [4]; against Glucocorticoid receptor) was “Not Active” each time. Moreover, the IC50 entry (at Cytochrome P450 2A6; in series [5]) was “Not Active” each time. Also, the inhibitory constant (Ki) result (in series [1]; in series [2]; in series [3]; on Cytochrome P450 2A6) was “Not Active” in each case.
As to `Nc1ccn([C@@H]2O[C@H](CO)[C@@H](O)C2(F)F)c(=O)n1` [GEMCITABINE], the IC50 result (in series [1]; in series [2]; in series [3]; against B2 bradykinin receptor; in series [4]; against Glucocorticoid receptor) was “Not Active” in each case. Besides, the IC50 result (against Cytochrome P450 2A6; in series [5]) was “Not Active” in each case. The inhibitory constant (Ki) result (in series [1]; in series [2]; in series [3]; on Cytochrome P450 2A6) was “Not Active” each time.
On to `N=C(N)NC(=O)Cc1c(Cl)cccc1Cl` [GUANFACINE], for which the 50% inhibitory concentration (IC50) entry (in series [1]; in series [2]; in series [3]; on B2 bradykinin receptor; in series [4]; against Glucocorticoid receptor) was “Not Active” each time. In addition, the IC50 result (at Cytochrome P450 2A6; in series [5]) was “Not Active” each time. In addition, the Ki result (in series [1]; in series [2]; in series [3]; at Cytochrome P450 2A6) was “Not Active” in each case.
As for `Oc1c(Cl)cc(Cl)c(Cl)c1Cc1c(O)c(Cl)cc(Cl)c1Cl` [HEXACHLOROPHENE], the IC50 result (in series [1]; in series [2]; in series [3]; against B2 bradykinin receptor; in series [4]; against Glucocorticoid receptor) was “Not Active” throughout. The IC50 result (at Cytochrome P450 2A6; in series [5]) was “Not Active” throughout. Moreover, the inhibition constant Ki result (in series [1]; in series [2]; in series [3]; at Cytochrome P450 2A6) was “Not Active” throughout.
